Legend:
[1] = tested on: cisplatin-induced nephropathy; test: Cisplatin-induced nephropathy in wild type mice; type: in vivo, C57BL/6J mice
Description: (§1) Ten to twelve-week-old male/female C57BL/6J mice were obtained from The Jackson Laboratory (Bar Harbor, ME, USA). CB2R knockout mice (CB2R^−/−) and their wild-type littermates (CB2R^+/+) were developed as described previously and had been backcrossed to a C57BL/6J background. All animals were kept in a temperature-controlled environment (20–22 °C) with a 12 h light–dark cycle and were always allowed free access to food and water. All animal experiments reported in this manuscript complied with the National Institutes of Health “Guide for the Care and Use of Laboratory Animals” (NIH publication 86–23 revised 1985) and were approved by the Institutional Animal Care and Use Committee of the National Institute on Alcohol Abuse and Alcoholism (Bethesda, MD).
(§2) The well-established model of cisplatin-induced nephropathy was used[63]. Mice (CB2R^−/− and CB2R^+/+) were sacrificed 72 h after a single injection of cisplatin (cis-diamine platinum (II) dichloride (Sigma#P4394) 25 mg/kg i.p.; freshly dissolved in physiological saline) by cervical dislocation under deep anesthesia with 5% isoflurane, for collection of blood and tissue samples. LEI-102 was given i.p. or by oral gavage (p.o.) at 0.3, 3.0, and 10 mg/kg every day, starting 1.5 h before the cisplatin exposure. The drug was dissolved in a vehicle of DMSO:Tween 80:saline, 1:1:18. After administration of LEI‐102, mice were killed by cervical dislocation under deep anesthesia with 5% isoflurane, for collection of blood and tissue samples at the time described in the figure. The tetrad assay in mice has previously been described in detail.
(§3) Markers of kidney dysfunction (BUN and CREA), histopathology (PAS staining), immunostaining or ELISA for 3-nitrotyrosine (3-NT; Cell Biolabs #STA-305) and 4-hydroxynonenal (4-HNE; Cell Biolabs#STA-838), and real-time PCR (Primers from Qiagen, SYBER Green Vita Scientific#MEIF01301, High-Capacity cDNA Reverse Transcription Kit, Thermo Fisher Scientific#4368813) for inflammatory cytokines were performed as previously described. Tubular damage scores were determined based on the percentage of tubules showing epithelial necrosis where 0= normal; 1, <10%; 2, 10–25%; 3, 26–75%; 4, >75%. Tubular necrosis was defined as the loss of the proximal tubular brush border, blebbing of apical membranes, tubular epithelial cell detachment from the basement membrane, or intraluminal aggregation of cells and proteins. The morphometric examination was performed in a blinded manner. Ten fields were scored from each mouse kidneys at 200× magnification, and average scores were determined for each mouse. For final quantification graph, average tubular damage scores of six mice/group were plotted.

[2] = tested on: cisplatin-induced nephropathy, CB2R knockout mice (CB2R−/−); test: Cisplatin-induced nephropathy in CB2R knockout mice; type: in vivo; conditions: Cisplatin KO; mean, n = 6
Description: as §1, §2, §3

CB1R QuadrupleTM1,7 = test: [35S]GTPγS assay, CB1R quadruple mutant; type: biochemical, human
CB2R-F117^3.36A = CB2R-F117^3.36A (Homo sapiens, UniProt P34972, F117A); test: [35S]GTPγS assay, CB2R F117A mutant; type: biochemical
CB2R-L182^ECL2I = CB2R-L182^ECL2I (Homo sapiens, UniProt P34972, L182I); test: [35S]GTPγS assay, CB2R L182I mutant; type: biochemical
CB2R-E181^ECL2D = CB2R-E181^ECL2D (Homo sapiens, UniProt P34972, E181D); test: [35S]GTPγS assay, CB2R E181D mutant; type: biochemical
hCB1R WT = hCB1R WT (Homo sapiens, UniProt P21554); test: [35S]GTPγS G protein activation assay, CB1R WT; type: biochemical
CB2R-S285^7.39A = CB2R-S285^7.39A (Homo sapiens, UniProt P34972, S285A); test: [35S]GTPγS assay, CB2R S285A mutant; type: biochemical
CB2R-I110^3.29A = CB2R-I110^3.29A (Homo sapiens, UniProt P34972, I110A); test: [35S]GTPγS assay, CB2R I110A mutant; type: biochemical
CB1R-H270^ECL2L = CB1R-H270^ECL2L (Homo sapiens, UniProt P21554, H270L); test: [35S]GTPγS assay, CB1R H270L mutant; type: biochemical
CB2R-Quadruple^TM1,7 = CB2R-Quadruple^TM1,7 (Homo sapiens, UniProt P34972, C40S/K279T/K33Q/V36I); test: [35S]GTPγS assay, CB2R quadruple mutant; type: biochemical
Description: In short, transient HEK293T membrane homogenates (10 µg/well) were diluted in assay buffer (50 mM Tris-HCl (pH 7.4), 5 mM MgCl2, 150 mM NaCl, 1 mM EDTA, 0.05% BSA (w/v) and 1 mM DTT, freshly prepared every day) and were pretreated with 10 µg saponin and 1 µM GDP. For endocannabinoid samples, the membranes were additionally pretreated for 30 min with 50 µM PMSF before agonist addition. […] Basal receptor activity was determined in the presence of vehicle only (0.2% DMSO/acetonitrile). […] Filtration was performed, and filter-bound radioactivity was determined as described under [^3H]RO6957022 Competition Association Assays except for using ice-cold 50 mM Tris-HCl (pH 7.4), 5 mM MgCl2 buffer.

CB2R WT = CB2R WT (Homo sapiens, UniProt P34972); test: [35S]GTPγS G protein activation assay, CB2R WT; type: biochemical
CB2R-I110^3.29L = CB2R-I110^3.29L (Homo sapiens, UniProt P34972, I110L); test: [35S]GTPγS assay, CB2R I110L mutant; type: biochemical
CB1R I267ECL2L = CB1R I267ECL2L (Homo sapiens, UniProt P21554, I267L); test: [35S]GTPγS assay, CB1R I267L mutant; type: biochemical
CB2R-H95^2.65A = CB2R-H95^2.65A (Homo sapiens, UniProt P34972, H95A); test: [35S]GTPγS assay, CB2R H95A mutant; type: biochemical
CB2R-L185^ECL2H = CB2R-L185^ECL2H (Homo sapiens, UniProt P34972, L185H); test: [35S]GTPγS assay, CB2R L185H mutant; type: biochemical
CB2R-V261^6.51L = CB2R-V261^6.51L (Homo sapiens, UniProt P34972, V261L); test: [35S]GTPγS assay, CB2R V261L mutant; type: biochemical
CB1R D266ECL2E = molecular target: T1, CB1R D266ECL2E (Homo sapiens, UniProt P21554, D266E); test: [35S]GTPγS assay, CB1R D266E mutant; type: biochemical
T1 construct: The WT CB1R and CB2R genes were subcloned into vector pcDNA3.1; HA signal peptide (N); expressed in transfected cells; host or cells: HEK293T (transient, membrane homogenates)

[3] = Cisplatin WT (Fig5F), mean, n = 6
[4] = cisplatin 25 mg/kg i.p. alone, 72 h, mean, n = 6 (Fig5A)
[5] = kidney, cisplatin alone, mean, n = 6, vehicle mean 1.0
[6] = kidney, cisplatin alone, mean, n = 6, vehicle mean 1.00

Chain of CB2R-H95^2.65A (P34972 whole entry H95A): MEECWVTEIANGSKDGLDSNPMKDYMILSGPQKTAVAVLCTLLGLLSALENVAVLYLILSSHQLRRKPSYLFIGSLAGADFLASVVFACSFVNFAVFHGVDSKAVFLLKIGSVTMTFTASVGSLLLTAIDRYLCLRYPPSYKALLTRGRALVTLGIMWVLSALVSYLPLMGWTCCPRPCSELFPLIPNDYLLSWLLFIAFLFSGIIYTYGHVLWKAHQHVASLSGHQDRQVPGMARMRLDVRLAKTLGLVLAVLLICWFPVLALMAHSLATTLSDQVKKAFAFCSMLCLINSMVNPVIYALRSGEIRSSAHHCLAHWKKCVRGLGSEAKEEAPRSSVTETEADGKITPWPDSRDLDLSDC
Chain of CB2R WT (P34972 whole entry): as the sequence (P34972 whole entry H95A) above, with A95H counted along it
Chain of CB2R-S285^7.39A (P34972 whole entry S285A): as the sequence (P34972 whole entry H95A) above, with A95H, S285A counted along it
Chain of CB2R-E181^ECL2D (P34972 whole entry E181D): as the sequence (P34972 whole entry H95A) above, with A95H, E181D counted along it
Chain of CB2R-L185^ECL2H (P34972 whole entry L185H): as the sequence (P34972 whole entry H95A) above, with A95H, L185H counted along it
Chain of CB2R-I110^3.29L (P34972 whole entry I110L): as the sequence (P34972 whole entry H95A) above, with A95H, I110L counted along it
Chain of CB2R-Quadruple^TM1,7 (P34972 whole entry K33Q/V36I/C40S/K279T): as the sequence (P34972 whole entry H95A) above, with K33Q, V36I, C40S, A95H, K279T counted along it
Chain of CB2R-L182^ECL2I (P34972 whole entry L182I): as the sequence (P34972 whole entry H95A) above, with A95H, L182I counted along it
Chain of CB2R-F117^3.36A (P34972 whole entry F117A): as the sequence (P34972 whole entry H95A) above, with A95H, F117A counted along it
Chain of CB2R-I110^3.29A (P34972 whole entry I110A): as the sequence (P34972 whole entry H95A) above, with A95H, I110A counted along it
Chain of CB1R-H270^ECL2L (P21554 whole entry H270L): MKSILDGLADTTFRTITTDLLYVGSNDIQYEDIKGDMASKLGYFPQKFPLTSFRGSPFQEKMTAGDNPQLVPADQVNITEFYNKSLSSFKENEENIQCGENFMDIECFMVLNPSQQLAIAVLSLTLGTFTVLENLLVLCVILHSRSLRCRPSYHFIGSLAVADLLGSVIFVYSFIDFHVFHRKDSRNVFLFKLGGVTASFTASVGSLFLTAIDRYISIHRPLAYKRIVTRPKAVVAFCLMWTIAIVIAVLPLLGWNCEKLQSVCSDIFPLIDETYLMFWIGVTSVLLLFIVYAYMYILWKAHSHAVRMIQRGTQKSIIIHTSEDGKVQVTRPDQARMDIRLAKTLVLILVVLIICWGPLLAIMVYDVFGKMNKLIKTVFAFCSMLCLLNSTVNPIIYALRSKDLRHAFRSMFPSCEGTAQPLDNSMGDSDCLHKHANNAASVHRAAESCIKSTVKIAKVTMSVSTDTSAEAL
T1 sequence (P21554 whole entry D266E): as the sequence (P21554 whole entry H270L) above, with D266E, L270H counted along it
Chain of hCB1R WT (P21554 whole entry): as the sequence (P21554 whole entry H270L) above, with L270H counted along it
Chain of CB2R-V261^6.51L (P34972 whole entry V261L): as the sequence (P34972 whole entry H95A) above, with A95H, V261L counted along it
Chain of CB1R I267ECL2L (P21554 whole entry I267L): as the sequence (P21554 whole entry H270L) above, with I267L, L270H counted along it

`N.N.[Cl][Pt][Cl]` [Cisplatin, cis-diamine platinum (II) dichloride] was tested. Which BUN [1, 3] did it give?
The BUN was 170.

What about the CREA [1, 3] of the same compound?
Its CREA is 1.7.

What about the Tubular damage score [1, 3] of the same compound?
The Tubular damage score was 2.16.

What about the BUN [1, 4] of the same compound?
The BUN was 167.5 mg/dL.

What about the CREA [1, 4] of the same compound?
The CREA was 1.8 mg/dL.

And the “serum creatinine and blood urea nitrogen levels” value ([1]; cisplatin 25 mg/kg i.p., 72 h, wild type mice vs vehicle)?
The value was “marked elevations”.

And the Tubular damage score ([1]; cisplatin alone, PAS staining, score 0-4, mean, n = 6 (Fig5B))?
Its Tubular damage score is 2.4.

And the “HNE (HNE adducts, ELISA)” value [1, 5]?
The value was 4.3.

And the “NT (protein nitration, ELISA)” value [1, 5]?
The value was 5.7.

What about the “IL1b expression (real-time PCR)” value [1, 6] of the same compound?
The value was 4.93.

And the “TNFa expression (real-time PCR)” value [1, 6]?
Its value is 3.36.

What about the BUN [2] of the same compound?
The BUN was 290.

What about the CREA [2] of the same compound?
Its CREA is 3.7.

And the Tubular damage score [2]?
The Tubular damage score was 2.86.

What does the source list for `CCCCCCC(C)(C)c1ccc([C@@H]2C[C@H](O)CC[C@H]2CCCO)c(O)c1` [CP55,940]?
Agonist-mediated activation (CB1R QuadrupleTM1,7): 1.8 ± 0.1 fold over its basal; Emax (CB2R-F117^3.36A): -1 ± 14%; Emax (CB2R-L182^ECL2I): 19 ± 2%; Emax (CB2R-E181^ECL2D): 19 ± 10%; Agonist-mediated activation (hCB1R WT): 1.2 ± 0.1 fold over its basal; Emax (CB2R-S285^7.39A): 25 ± 5%; Emax (CB2R-I110^3.29A): 30 ± 2%; Agonist-mediated activation (CB1R-H270^ECL2L): 1.6 ± 0.1 fold over its basal; Emax (CB2R-Quadruple^TM1,7): 18 ± 14%; Emax (CB2R WT): 98 ± 4%; Emax (%) (CB2R WT): 99 ± 3%; Emax (CB2R-I110^3.29L): 96 ± 3%; Agonist-mediated activation (CB1R I267ECL2L): 1.0 ± 0.0 fold over its basal; Emax (CB2R-H95^2.65A): 68 ± 11%; drop in potency compared to WT (CB2R-H95^2.65A): 40 fold; Emax (CB2R-L185^ECL2H): 142 ± 16%; Emax (CB2R-V261^6.51L): 12 ± 7%; Agonist-mediated activation (CB1R D266ECL2E): 1.4 ± 0.1 fold over its basal
